Results: the supplement of paper PMC8617591

Experiments:
[1] = test system: Mycobacterium tuberculosis Erdman (autoluminescent); test: GRinf, maximum normalised growth rate inhibition (three-drug combination) (unitless (-1 to 1)); higher = less effect (negative = killing)
Method: (§1)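 DiaMOND equipotent three-drug combination dose responses (10 doses, 1.5- or 2-fold spacing, centred on IC90) against autoluminescent M. tuberculosis Erdman in 8 in vitro models. Read-out is OD600, or luminescence for the intracellular and dormancy models, normalised to untreated wells. Hill-fit Einf, AUC25 and GRinf are potency metrics; FIC50 and FIC90 are total Loewe fractional inhibitory concentrations as log2 (negative = synergy).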

[2] = test system: Mycobacterium tuberculosis Erdman (autoluminescent); test: total FIC90 (Loewe) at 90% inhibition, three-drug combination (log2); higher = more antagonistic
Method: as §1

[3] = test system: Mycobacterium tuberculosis Erdman (autoluminescent); test: total FIC50 (Loewe) at 50% inhibition, three-drug combination (log2); higher = more antagonistic
Method: as §1

[4] = test system: Mycobacterium tuberculosis Erdman (autoluminescent); test: AUC25, normalised area under dose response up to IC25 (three-drug combination) (fraction (0-1)); higher = more potent at low dose
Method: as §1

[5] = test system: Mycobacterium tuberculosis Erdman (autoluminescent); test: Einf, fitted maximum growth inhibition of three-drug combination (fraction); higher = stronger maximal inhibition
Method: as §1

CC(=O)NC[C@H]1CN(c2ccc(N3CCOCC3)c(F)c2)C(=O)O1 [linezolid] + NC(=O)c1cnccn1 [pyrazinamide] + CO[C@H]1/C=C/O[C@@]2(C)Oc3c(C)c(O)c4c(O)c(c(/C=N/N5CCN(C6CCCC6)CC5)c(O)c4c3C2=O)NC(=O)/C(C)=C\C=C\[C@H](C)[C@H](O)[C@@H](C)[C@@H](O)[C@@H](C)[C@H](OC(C)=O)[C@@H]1C [rifapentine]
Conditions | AUC25, [4] | Einf, [5] | GRinf, [1] | total FIC50, [3] | total FIC90, [2]
in vitro model: acidic pH 5.7, time point: constant (~7 days, model-specific) | 0.105 | 0.91 | -0.206 | 0.0539 | –
in vitro model: acidic pH 5.7, time point: terminal (~4-5 doublings, model-specific) | 0.0872 | 0.992 | -0.258 | -0.0159 | –
in vitro model: intracellular J774, time point: constant = terminal | – | 0.947 | -0.174 | – | -0.0473

Conditions | AUC25, [4] | Einf, [5] | GRinf, [1] | total FIC50, [3] | total FIC90, [2]
in vitro model: butyrate, time point: constant (~7 days, model-specific) | 0.0966 | 0.892 | 0.08 | -0.0866 | –
in vitro model: butyrate, time point: terminal (~4-5 doublings, model-specific) | 0.0673 | 0.94 | 0.0873 | 0.038 | -0.132
in vitro model: cholesterol 0.05 mM, time point: constant (~7 days, model-specific) | 0.143 | 0.758 | -0.43 | – | –
in vitro model: cholesterol 0.05 mM, time point: terminal (~4-5 doublings, model-specific) | 0.139 | 0.938 | -0.446 | 0.219 | –
in vitro model: cholesterol-high 0.2 mM, time point: constant (~7 days, model-specific) | 0.112 | 0.952 | -0.497 | 0.301 | –
in vitro model: cholesterol-high 0.2 mM, time point: terminal (~4-5 doublings, model-specific) | 0.0909 | 1 | -0.945 | 0.319 | -0.0261
in vitro model: dormancy (butyrate + nitrate, low O2), time point: constant (~7 days, model-specific) | 0.0577 | 0.867 | 0.245 | 0.405 | 0.766
in vitro model: dormancy (butyrate + nitrate, low O2), time point: terminal (~4-5 doublings, model-specific) | 0.0343 | 0.976 | -0.12 | 0.486 | 0.153
in vitro model: standard 7H9 glycerol, time point: constant = terminal | 0.0547 | 0.876 | 0.183 | 0.187 | –
in vitro model: valerate, time point: constant (~7 days, model-specific) | 0.0698 | 0.865 | 0.0833 | -0.277 | –
in vitro model: valerate, time point: terminal (~4-5 doublings, model-specific) | 0.0324 | 0.921 | 0.0692 | -0.0139 | -0.406

CC(=O)NC[C@H]1CN(c2ccc(N3CCOCC3)c(F)c2)C(=O)O1 [linezolid] + NC(=O)c1cnccn1 [pyrazinamide] + CO[C@H]1/C=C/O[C@@]2(C)Oc3c(C)c(O)c4c(O)c(c(/C=N/N5CCN(C)CC5)c(O)c4c3C2=O)NC(=O)/C(C)=C\C=C\[C@H](C)[C@H](O)[C@@H](C)[C@@H](O)[C@@H](C)[C@H](OC(C)=O)[C@@H]1C [rifampicin]
Conditions | AUC25, [4] | Einf, [5] | GRinf, [1] | total FIC50, [3] | total FIC90, [2]
in vitro model: acidic pH 5.7, time point: constant (~7 days, model-specific) | 0.0897 | 0.883 | -0.255 | 0.175 | –
in vitro model: acidic pH 5.7, time point: terminal (~4-5 doublings, model-specific) | 0.0731 | 0.986 | -0.249 | 0.189 | –
in vitro model: intracellular J774, time point: constant = terminal | – | 0.953 | -0.411 | – | -0.0717

Conditions | AUC25, [4] | Einf, [5] | GRinf, [1] | total FIC50, [3] | total FIC90, [2]
in vitro model: butyrate, time point: constant (~7 days, model-specific) | 0.0912 | 0.889 | 0.0887 | -0.0235 | 0.328
in vitro model: butyrate, time point: terminal (~4-5 doublings, model-specific) | 0.075 | 0.94 | 0.0909 | -0.114 | -0.413
in vitro model: cholesterol 0.05 mM, time point: constant (~7 days, model-specific) | 0.141 | 0.702 | -0.117 | – | –
in vitro model: cholesterol 0.05 mM, time point: terminal (~4-5 doublings, model-specific) | 0.127 | 0.929 | -0.289 | 0.713 | –
in vitro model: cholesterol-high 0.2 mM, time point: constant (~7 days, model-specific) | 0.116 | 0.926 | -0.72 | 0.321 | –
in vitro model: cholesterol-high 0.2 mM, time point: terminal (~4-5 doublings, model-specific) | 0.104 | 0.995 | -0.826 | 0.598 | 0.554
in vitro model: dormancy (butyrate + nitrate, low O2), time point: constant (~7 days, model-specific) | 0.0758 | 0.893 | 0.203 | 0.486 | 0.378
in vitro model: dormancy (butyrate + nitrate, low O2), time point: terminal (~4-5 doublings, model-specific) | 0.0314 | 0.972 | -0.277 | 0.208 | -0.126
in vitro model: standard 7H9 glycerol, time point: constant = terminal | 0.0779 | 0.908 | 0.119 | -0.168 | –
in vitro model: valerate, time point: constant (~7 days, model-specific) | 0.0571 | 0.853 | 0.1 | 0.122 | –
in vitro model: valerate, time point: terminal (~4-5 doublings, model-specific) | 0.0305 | 0.925 | 0.0656 | 0.211 | -0.35

CC(=O)NC[C@H]1CN(c2ccc(N3CCOCC3)c(F)c2)C(=O)O1 [linezolid] + O=[N+]([O-])c1cn2c(n1)OC[C@@H](OCc1ccc(OC(F)(F)F)cc1)C2 [pretomanid] + CO[C@H]1/C=C/O[C@@]2(C)Oc3c(C)c(O)c4c(O)c(c(/C=N/N5CCN(C6CCCC6)CC5)c(O)c4c3C2=O)NC(=O)/C(C)=C\C=C\[C@H](C)[C@H](O)[C@@H](C)[C@@H](O)[C@@H](C)[C@H](OC(C)=O)[C@@H]1C [rifapentine]
Conditions | AUC25, [4] | Einf, [5] | GRinf, [1] | total FIC50, [3] | total FIC90, [2]
in vitro model: acidic pH 5.7, time point: constant (~7 days, model-specific) | 0.0833 | 0.887 | 0.0321 | 0.893 | –
in vitro model: acidic pH 5.7, time point: terminal (~4-5 doublings, model-specific) | 0.0609 | 0.978 | 0.00722 | 0.838 | 0.632
in vitro model: intracellular J774, time point: constant = terminal | – | 0.953 | -0.276 | – | 0.646

Conditions | AUC25, [4] | Einf, [5] | GRinf, [1] | total FIC50, [3] | total FIC90, [2]
in vitro model: butyrate, time point: constant (~7 days, model-specific) | 0.0937 | 0.91 | -0.0425 | 0.403 | 0.09
in vitro model: butyrate, time point: terminal (~4-5 doublings, model-specific) | 0.0716 | 0.955 | 0.0296 | 0.296 | 0.336
in vitro model: cholesterol 0.05 mM, time point: constant (~7 days, model-specific) | 0.142 | 0.677 | -0.167 | 0.533 | –
in vitro model: cholesterol 0.05 mM, time point: terminal (~4-5 doublings, model-specific) | 0.127 | 0.89 | -0.198 | 0.278 | 0.6
in vitro model: cholesterol-high 0.2 mM, time point: constant (~7 days, model-specific) | 0.0858 | 0.912 | -0.159 | 0.139 | 0.124
in vitro model: cholesterol-high 0.2 mM, time point: terminal (~4-5 doublings, model-specific) | 0.095 | 1 | -0.71 | 0.348 | 0.313
in vitro model: dormancy (butyrate + nitrate, low O2), time point: constant (~7 days, model-specific) | 0.0497 | 0.894 | 0.223 | 0.906 | 0.707
in vitro model: dormancy (butyrate + nitrate, low O2), time point: terminal (~4-5 doublings, model-specific) | 0.0403 | 0.979 | -0.0764 | 0.858 | 0.899
in vitro model: standard 7H9 glycerol, time point: constant = terminal | 0.0904 | 0.932 | -0.132 | 0.424 | 0.754
in vitro model: valerate, time point: constant (~7 days, model-specific) | 0.159 | 0.913 | -0.446 | -1.08 | –
in vitro model: valerate, time point: terminal (~4-5 doublings, model-specific) | 0.125 | 0.966 | -0.15 | -0.336 | 1.3
